These results are taken from patent US4634766A, “1,4-diaza-phenothiazines” (Merck Frosst Canada, Inc., priority 1984, dated 1987).

Values after ≈ are worked out from the molar mass of the structure shown.

The subject of one assay is guinea pig trachea. Briefly: Antigen Challenge in vitro Assay: contraction of sensitized tracheal chains by egg albumin. Format: cell-based. The note with it: Cavia porcellus; for inhibition at 3 µg/mL: 3 μg/ml. How it is done:
Male guinea pigs weighing 300-350 g were sensitized by injecting (I.P.) 0.5 ml of a suspension containing 0.4 mg of egg albumin (Ovalbumin, Grade V, Sigma Chemical Co.) and 4.0 g aluminum hydroxide in 19.6 ml of saline. Two weeks were permitted for sensitization to occur.
Three sensitized guinea pigs were stunned and exsanguinated. The tracheas were removed, freed of adhering tissue and divided longitudinally by cutting through the cartilaginous tissue directly opposite the muscle insertion. Each opened trachea was then transected between every second cartilage. Four of the cut sections were tied together, end to end, in a series with No. 7 silk thread ensuring that the tracheal muscles were all in the same vertical plane. Thus, each chain consisted of tissue from three different animals.
The chain so formed was then suspended under 1 g of tension (by silk ties at each end) in a 20 ml organ bath containing 10 ml of modified^1 Krebs-Henseleit buffer solution gassed with 95% O2 and 5% CO2 at 37° C. Mepyramine (0.55 μg/ml) and indomethacin (2.67 μg/ml) were added to the buffer to avoid the contribution of histamine receptors and cyclooxygenase products to the contraction. To record responses one end of the tracheal chain was attached to a Gould-Statham UC-2 force displacement transducer which was connected to a Beckman Type R-dynograph.The preparations were allowed to equilibrate for one hour during which time the tissues were automatically washed (10 ml volume displacement) every 6 minutes.
After the equilibration period the tissues were primed with methacholine (3 μg/ml; 1.5×10^-5 M), washed and allowed to recover to baseline. The tissues were treated again with a second dose of methacholine, washed, allowed to return to baseline and washed for an additional hour.
Two chains were used as a control. These were incubated in a concentration of egg albumin sufficient to induce an average contraction of 50-80% of the methacholine response.
Each compound to be tested was added to two other baths (at a final concentration in each bath of 10 μg/ml) 15 minutes prior to challenging the fresh chains with egg albumin.
The response of the challenged tissue was expressed as a percentage of the methacholine maximum. The percentage inhibition for each compound was then calculated. Compounds which at 10 μg/ml (final conc.) inhibited the egg albumin response by 50% or more were retested at a lower concentration.

In assay [1] the test system is LTB4 formation in rat polymorphonuclear leukocytes. Briefly: Rat Polymorphonuclear Leukocyte (P.M.N.) Assay: inhibition of LTB4 formation. Format: cell-based. The note with it: A-23187 stimulated rat PMN, LTB4 bioassay, read-out: PMN I50. How it is done: Rats under ether anesthesia were injected (i.p.) with 8 ml of a suspension of sodium caseinate (6 grams in ca. 50 ml water). After 15-24 hours the rats were sacrificed (CO2) and the cells from the peritoneal cavity were recovered by lavage with 20 ml of buffer (Eagles MEM containing 30 mM HEPES adjusted to pH 7.4 with NaOH). The cells were pelleted (350×g,5 min.), resuspended in buffer with vigorous shaking, filtered through lens paper, recentrifuged and finally suspended in buffer at a concentration of […]. A 500 μl aliquot of PMN suspension and test compound were preincubated for 2 minutes at 37° C., followed by the addition of 10 μM A-23187. The suspension was stirred for an additional 4 minutes then bioassayed for LTB4 content by adding an aliquot to a second 500 μl portion of the PMN at 37° C. The LTB4 produced in the first incubation caused aggregation of the second PMN, which was measured as a change in light transmission. The size of the assay aliquot was chosen to give a submaximal transmission change (usually -70%) for the untreated control. The percentage inhibition of LTB4 formation was calculated from the ratio of transmission change in the sample to the transmission change in the compound-free control.

The subject of a further assay is asthmatic rats. Nature of the assay: Asthmatic Rat Assay: duration of dyspnoea after egg albumin aerosol challenge. Format: in vivo. As to conditions: p.o. The text has this:
Rats were obtained from an inbred line of asthmatic rats. Both female and male rats from 200 to 300 g were used.
Egg albumin (EA), grade V, crystallized and lyophilized, was obtained from Sigma Chemical Co., St. Louis. Bordetella pertussis vaccine, containing 30×10^9 killed bacteria per ml was obtained from the Institut Armand-Frappier, Laval des Rapides, Quebec. Aluminum hydroxide was obtained from the Regis Chemical Company, Chicago.
The challenge and subsequent respiratory recordings were carried out in a clear plastic box with internal dimensions 10×6×4 inches. The top of the box was removable; in use, it was held firmly in place by four clamps and an airtight seal was maintained by a soft rubber gasket. […] A Fleisch No. 0000 pneumotachograph was inserted into one end of the box and coupled to a Grass volumetric pressure transducer (PT5-A) which was then connected to a Beckman Type R Dynograph through appropriate couplers. While aerosolizing the antigen, the outlets were open and the pneumotachograph was isolated from the chamber. The outlets were closed and the pneumotachograph and the chamber were connected during the recording or the respiratory patterns. For challenge, 2 ml of a 3% solution of antigen in saline was placed into each nebulizer and the aerosol was generated with air from a small Potter diaphragm pump operating at 10 psi and a flow of 8 liters/minute.
Rats were sensitized by injecting (s.c.) 1 ml of a suspension containing 1 mg EA and 200 mg aluminum hydroxide in saline. Simultaneously, they received an intraperitoneal (i.p.) injection of 0.5 ml of B. pertussis vaccine. They were used between days 14 and 18 postsensitization. In order to eliminate the serotonin component of the response, rats were pretreated intravenously 5 minutes prior to aerosol challenge with […] methylserzide. Rats were then exposed to an aerosol of 3% EA in saline for exactly 1 minute, then their respiratory profiles were recorded for a further 25-30 minutes. The duration of continuous dyspnoea was measured from the respiratory recordings.
Compounds were generally administered either intraperitoneally 1 hour prior to challenge or orally 11/2 hours prior to challenge. They were either dissolved in dimethylsulfoxide or suspended in 0.1% methocel and 0.5% Tween 80. The volume injected was 2 ml/kg (intraperitoneally) or 10 ml/kg (orally (p.o.)). Prior to oral treatment rats were starved overnight. Their activity was determined in terms of their ability to decrease the duration of symptoms of dyspnoea in comparison with a group of vehicle-treated controls. Usually, a compound was evaluated at a series of doses and an ED50 was determined. This was defined as the dose (mg/kg) which would inhibit the duration of symptoms by 50%.

In assay [2] the test system is PAF-induced hyperalgesia in the rat paw. Nature of the assay: PAF-Induced Hyperalgesia Assay. The note with it: 10 mg/kg, i.p. Type of assay: in vivo, rat (Sprague-Dawley).

Regarding `CCOC(=O)CN1c2ccccc2Sc2nccnc21`, in the assay with guinea pig trachea, the inhibition (in general, how much of the control response was suppressed) at 3 µg/mL stood at 22%.

`c1ccc2c(c1)Nc1nccnc1S2` [drawing 17]: the IC50 in assay [1] stood at 5 µg/mL (≈ 24.8 µM). Besides, the inhibition at 10 µg/mL in the assay with guinea pig trachea (10 μg/ml) was 85%.

On to `CN1c2ccccc2Sc2nccnc21`, for which the IC50 in assay [1] fell in the range of 1 to 5 µg/mL (≈ 4.65 to 23.2 µM).

Consider `COc1ccc2c(c1)[S+]([O-])c1nccnc1N2C` (centres unmarked), for which the “Asthmatic Rat % Inhibition” value in the assay on asthmatic rats (3 mg/kg) is reported as 25%.

In the case of `COc1ccc2c(c1)Sc1nccnc1N2C`, the “Asthmatic Rat % Inhibition” value in the assay with asthmatic rats (3 mg/kg) was 43%.

In the case of `CN1c2ccc(O)cc2Sc2nccnc21` [drawing 30], the “Asthmatic Rat % Inhibition” value in the assay with asthmatic rats (3 mg/kg) was found to be 39%.

Take `COc1ccc2c(c1)Sc1nccnc1N2`: in assay [1], the IC50 fell in the range of 0.05 to 0.5 µg/mL (≈ 0.216 to 2.16 µM). For the same molecule, the inhibition at 3 µg/mL in the assay with guinea pig trachea was found to be 42%.

`CN1c2cc(Cl)c(O)cc2Sc2nccnc21` [drawing 18]: in assay [1], the IC50 was 0.2 µg/mL (≈ 0.753 µM).

On to `COc1cc2c(cc1Cl)N(C)c1nccnc1S2`, for which the IC50 in assay [1] is 5 µg/mL (≈ 17.9 µM).

On to `CN1c2ccc(O)cc2Sc2nccnc21` [drawing 21], for which the IC50 in assay [1] fell in the range of 1 to 5 µg/mL (≈ 4.32 to 21.6 µM). In the assay on guinea pig trachea, the inhibition at 3 µg/mL was determined as 71%.

For `c1ccc2c(c1)Nc1nccnc1S2` [drawing 27], the “Asthmatic Rat % Inhibition” value with asthmatic rats (5 mg/kg) came out at 30%. Also, in assay [2], the “PAF % Inhibition” value worked out at 70%.

Consider `CN1c2cc(Cl)c(O)cc2Sc2nccnc21` [drawing 28], for which the “Asthmatic Rat % Inhibition” value in the assay with asthmatic rats (5 mg/kg) came out at 47%.

For the molecule `COc1cc2c(cc1Cl)Nc1nccnc1S2`, the IC50 in assay [1] stood at 1 µg/mL (≈ 3.76 µM).

For the molecule `CC(=O)N1c2ccccc2Sc2nccnc21`, the inhibition at 3 µg/mL in the assay with guinea pig trachea came to 14%.

For the molecule `c1ccc2c(c1)Nc1nccnc1O2`, in assay [1], the IC50 fell in the range of 0.5 to 1 µg/mL (≈ 2.7 to 5.4 µM). The inhibition at 3 µg/mL in the assay with guinea pig trachea amounted to 35%.
